Activity calls are given as the source filed them. The rule behind the calls is not given here.
Columns and labels:
[1] = Downregulation of CENPW level in TMZ-resistant patient-derived human GBM cells assessed as fold change at 2 uM by GlioVis analysis (reference value: 2.83); format: functional
[2] = Downregulation of CENPM level in TMZ-resistant patient-derived human GBM cells assessed as fold change at 2 uM by GlioVis analysis (reference value: 2.23); format: functional
[3] = Downregulation of OIP5 level in TMZ-resistant patient-derived human GBM cells assessed as fold change at 2 uM by GlioVis analysis (reference value: 2.31); format: functional
[4] = Downregulation of HJURP level in TMZ-resistant patient-derived human GBM cells assessed as fold change at 2 uM by GlioVis analysis (reference value: 4.74); format: functional
[5] = Downregulation of MIS18BP1 level in TMZ-resistant patient-derived human GBM cells assessed as fold change at 2 uM by GlioVis analysis (reference value: 3.87); format: functional
[6] = Downregulation of HELLS level in TMZ-resistant patient-derived human GBM cells assessed as fold change at 2 uM by GlioVis analysis (reference value: 4.19); format: functional
[7] = Downregulation of CENPO level in TMZ-resistant patient-derived human GBM cells assessed as fold change at 2 uM by GlioVis analysis (reference value: 3.12); format: functional
[8] = Downregulation of CENPO level in TMZ-resistant patient-derived human GBM cells assessed as fold change at 2 uM by GlioVis analysis (reference value: 2.67); format: functional
[9] = Downregulation of CENPU level in TMZ-resistant patient-derived human GBM cells assessed as fold change at 2 uM by GlioVis analysis (reference value: 3.88); format: functional
[10] = Downregulation of CENPK level in TMZ-resistant patient-derived human GBM cells assessed as fold change at 2 uM by GlioVis analysis (reference value: 3.71); format: functional
[11] = Downregulation of CENPA level in TMZ-resistant patient-derived human GBM cells assessed as fold change at 2 uM by GlioVis analysis (reference value: 3.64); format: functional
[12] = Downregulation of CENPI level in TMZ-resistant patient-derived human GBM cells assessed as fold change at 2 uM by GlioVis analysis (reference value: 3.46); format: functional
[13] = Effect on processing DNA double-strand break in TMZ-resistant patient-derived human GBM cells assessed as fold decrease in RBBP8 gene expression at 2 uM (reference value: 4.92); format: functional
[14] = Effect on processing DNA double-strand break in TMZ-resistant patient-derived human GBM cells assessed as fold decrease in BLM gene expression at 2 uM (reference value: 3.55); format: functional
[15] = Effect on processing DNA double-strand break in TMZ-resistant patient-derived human GBM cells assessed as fold decrease in DNA2 gene expression at 2 uM (reference value: 2.75); format: functional
GBM [16] = experiment: Effect on homologous recombination in TMZ-resistant patient-derived human GBM cells assessed as fold decrease in TOP2A gene expression at 2 uM (reference value: 6.78); format: functional
GBM [17] = experiment: Effect on homologous recombination in TMZ-resistant patient-derived human GBM cells assessed as fold decrease in RAD21 gene expression at 2 uM (reference value: 5.77); format: functional
GBM [18] = experiment: Effect on homologous recombination in TMZ-resistant patient-derived human GBM cells assessed as fold decrease in HDAC10 gene expression at 2 uM (reference value: 0.53); format: functional
GBM [19] = experiment: Effect on homologous recombination in TMZ-resistant patient-derived human GBM cells assessed as fold decrease in MSH5 gene expression at 2 uM (reference value: 1.52); format: functional
GBM [20] = experiment: Effect on homologous recombination in TMZ-resistant patient-derived human GBM cells assessed as fold decrease in RAD54B gene expression at 2 uM (reference value: 1.74); format: functional
GBM [21] = experiment: Effect on homologous recombination in TMZ-resistant patient-derived human GBM cells assessed as fold decrease in BLM gene expression at 2 uM (reference value: 3.55); format: functional
GBM [22] = experiment: Effect on homologous recombination in TMZ-resistant patient-derived human GBM cells assessed as fold decrease in MND1 gene expression at 2 uM (reference value: 2.95); format: functional
GBM [23] = experiment: Effect on homologous recombination in TMZ-resistant patient-derived human GBM cells assessed as fold decrease in EME1 gene expression at 2 uM (reference value: 2.94); format: functional
GBM [24] = experiment: Effect on homologous recombination in TMZ-resistant patient-derived human GBM cells assessed as fold decrease in PSMC3IP gene expression at 2 uM (reference value: 2.71); format: functional
GBM [25] = experiment: Effect on homologous recombination in TMZ-resistant patient-derived human GBM cells assessed as fold decrease in FANCM gene expression at 2 uM (reference value: 2.59); format: functional
GBM [26] = experiment: Effect on homologous recombination in TMZ-resistant patient-derived human GBM cells assessed as fold decrease in RMI1 gene expression at 2 uM (reference value: 3.44); format: functional
GBM [27] = experiment: Induction of ROS production in patient-derived human GBM cells measured after 48 hrs by DHR staining based flow cytometry; format: functional, cell-based
GBM [28] = experiment: Induction of ROS production in TMZ-resistant patient-derived human GBM cells measured after 48 hrs by DHR staining based flow cytometry; format: functional, cell-based
GBM [29] = experiment: Induction of ROS production in patient-derived human GBM cells assessed as decrease in SOD1 level upto 10 uM measured after 48 hrs by Western blot analysis; format: functional, cell-based
GBM [30] = experiment: Induction of ROS production in patient-derived human GBM cells assessed as decrease in GPX1 level upto 10 uM measured after 48 hrs by Western blot analysis; format: functional, cell-based
GBM [31] = experiment: Induction of ROS production in TMZ-resistant patient-derived human GBM cells assessed as decrease in SOD1 level upto 10 uM measured after 48 hrs by Western blot analysis; format: functional, cell-based
GBM [32] = experiment: Induction of ROS production in TMZ-resistant patient-derived human GBM cells assessed as decrease in GPX1 level upto 10 uM measured after 48 hrs by Western blot analysis; format: functional, cell-based
[33] = target: Histone-lysine N-methyltransferase EZH2 (Homo sapiens) (UniProt Q15910); experiment: Inhibition of EZH2 in TMZ-resistant patient-derived human GBM cells upto 10 uM measured after 48 hrs by Western blot analysis; format: cell-based
Histone-lysine N-methyltransferase EZH2 (Homo sapiens), sequence (Q15910 whole entry, looked up): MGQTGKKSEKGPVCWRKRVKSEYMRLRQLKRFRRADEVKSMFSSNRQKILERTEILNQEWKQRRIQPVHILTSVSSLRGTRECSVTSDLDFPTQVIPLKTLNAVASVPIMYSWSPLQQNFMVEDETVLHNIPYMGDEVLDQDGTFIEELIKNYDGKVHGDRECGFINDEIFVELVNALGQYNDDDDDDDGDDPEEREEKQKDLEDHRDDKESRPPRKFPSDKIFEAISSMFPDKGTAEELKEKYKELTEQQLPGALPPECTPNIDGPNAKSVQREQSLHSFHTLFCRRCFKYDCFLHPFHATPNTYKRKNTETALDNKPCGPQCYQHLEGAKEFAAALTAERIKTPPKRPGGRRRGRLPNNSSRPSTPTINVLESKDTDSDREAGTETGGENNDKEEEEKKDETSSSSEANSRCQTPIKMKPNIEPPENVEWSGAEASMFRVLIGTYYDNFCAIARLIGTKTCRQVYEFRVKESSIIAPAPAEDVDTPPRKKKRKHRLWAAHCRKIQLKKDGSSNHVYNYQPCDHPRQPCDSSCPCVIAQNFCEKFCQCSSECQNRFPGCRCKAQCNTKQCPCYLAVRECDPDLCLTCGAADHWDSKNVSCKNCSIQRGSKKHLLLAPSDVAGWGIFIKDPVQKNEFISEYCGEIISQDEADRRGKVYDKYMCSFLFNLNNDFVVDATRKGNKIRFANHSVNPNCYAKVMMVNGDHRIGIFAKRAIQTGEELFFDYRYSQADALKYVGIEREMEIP

[34] = target: Histone-lysine N-methyltransferase EZH2 (Homo sapiens) (UniProt Q15910); experiment: Inhibition of EZH2 in patient-derived human GBM cells upto 10 uM measured after 48 hrs by Western blot analysis; format: cell-based
[35] = target: Histone-lysine N-methyltransferase EZH2 (Homo sapiens) (UniProt Q15910); experiment: Inhibition of EZH2-mediated H3K27 trimethylation in TMZ-resistant patient-derived human GBM cells upto 10 uM measured after 48 hrs by Western blot analysis; format: cell-based
[36] = target: Histone-lysine N-methyltransferase EZH2 (Homo sapiens) (UniProt Q15910); experiment: Inhibition of EZH2-mediated H3K27 trimethylation in patient-derived human GBM cells upto 10 uM measured after 48 hrs by Western blot analysis; format: cell-based
GBM [37] = experiment: Induction of mitochondrial ROS production in TMZ-resistant patient-derived human GBM cells by MitoSOX staining based analysis; format: functional, cell-based
GBM [38] = experiment: Induction of ROS production in TMZ-resistant patient-derived human GBM cells assessed as increase in cleaved caspase-3 level upto 5 uM measured for 48 hrs by Western blot analysis; format: functional, cell-based
GBM [39] = experiment: Antitumor activity against TMZ-resistant patient-derived human GBM cells xenografted in NOD.CB17-Prkdcscid/NCrCrl mouse assessed as reduction in tumor growth at 20 mg/kg, ip treated twice per week; format: functional, organism-based

Structure (SMILES): CCN(c1cc(-c2cccc(N(C)C(=O)c3cc(C(C)C)c(O)cc3O)c2)cc(C(=O)NCc2c(C)cc(C)[nH]c2=O)c1C)C1CCOCC1
- fold change (FC) [1]: 0.72
- fold change (FC) [2]: 0.48
- fold change (FC) [3]: 0.66
- fold change (FC) [4]: 1.38
- fold change (FC) [5]: 2.43
- fold change (FC) [6]: 2.37
- fold change (FC) [7]: 1.84
- fold change (FC) [8]: 1.53
- fold change (FC) [9]: 1.46
- fold change (FC) [10]: 1.33
- fold change (FC) [11]: 0.81
- fold change (FC) [12]: 1.14
- fold change (FC) [13]: 3.95
- fold change (FC) [14]: 0.72
- fold change (FC) [15]: 1.33
- fold change (FC) (GBM [16]): 2.68
- fold change (FC) (GBM [17]): 4.69
- fold change (FC) (GBM [18]): 0.17
- fold change (FC) (GBM [19]): 0.44
- fold change (FC) (GBM [20]): 0.83
- fold change (FC) (GBM [21]): 0.72
- fold change (FC) (GBM [22]): 0.36
- fold change (FC) (GBM [23]): 0.75
- fold change (FC) (GBM [24]): 1.17
- fold change (FC) (GBM [25]): 1.77
- fold change (FC) (GBM [26]): 2.33
- Activity (GBM [27]): Active
- Activity (GBM [28]): Active
- Activity (GBM [29]): Active
- Activity (GBM [30]): Active
- Activity (GBM [31]): Active
- Activity (GBM [32]): Active
- inhibition [33]: Active
- inhibition [34]: Active
- inhibition [35]: Active
- inhibition [36]: Active
- Activity (GBM [37]): Active
- Activity (GBM [38]): Active
- Activity (GBM [39]): Active
